From patent US4701465A, “N-acylpyrrolidine derivative and synthesis and use thereof” (Suntory Limited, priority 1985, dated 1987)

Assays:
prolyl endopeptidase = prolyl endopeptidase (Elizabethkingia meningoseptica, UniProt P27028); test: Measurement of anti-prolyl endopeptidase activity; format: biochemical; conditions: substrate Z-glycyl-proline-β-naphthylamide, 0.1M phosphate buffer pH 7.06, absorbance at 410 nm
Experimental: The method of Yoshimoto and Tsuru (T. Yoshimoto and D. Tsuru, Agr. Biol. Chem. 42, 2417, 1978) was used to measure the anti-prolyl endopeptidase activities of compounds of the present invention. A mixture of 0.0025M Z-glycyl-proline-β-naphthylamide (0.25 ml), 0.1M phosphate buffer (pH, 7.06; 0.99 ml) and a solution of a particular anti-prolyl endopeptidase compound (0.01 ml) was incubated in a test tube at 37° C. for 3 minutes. Thereafter, 0.1 ml of a solution of prolyl endopeptidase (0.2 U/ml) was added and the mixture was heated at 35° C. for 10 minutes. After the reaction, 2.0 ml of Triton X-100 in 1M acetate buffer (pH, 4.0) was added to the reaction mixture until the final concentration of the surfactant was 10%. The mixture was left at room temperature for 15 minutes and the absorbance (a) at 410 nm was measured.
A sample for a blind test was prepared by using the buffer instead of the anti-prolyl endopeptidase compound and its absorbance (b) was also measured. The percent inhibition of prolyl endopeptidase was calculated by the formula: ((b-a)/b)×100, and the amount of a specific compound to achieve 50% inhibition IC50) was determined.

[1] = test system: experimental amnesia caused in rats by scopolamine; test: Preventive effect against experimental amnesia caused in rats by scopolamine (passive avoidance learning, intraperitoneal administration); format: in vivo, Wister male rats; conditions: 1 mg/kg i.p.; for No. of amnesic rats/No. of rats tested / percentage amnesia / Avoidance time 24 hrs. later / Avoidance time 48 hrs. later: scopolamine 3 mg/kg i.p. after learning; for preventive effect against scopolamine amnesia (in words): rats
Experimental: Several of the anti-prolyl endopeptidase compounds of the present invention were checked for their ability to prevent the inhibition of long-term memory fixation by scopolamine. Solutions of physiological saline that contained selected compounds of the present inventions in an amount of 1 mg/kg were administered intraperitoneally to Wister male rats (100-120 g). One hour after the administration, electric shocks were applied to the rats so that they would acquire passive avoidance learning. Immediately thereafter, scopolamine was administered intraperitoneally to each rat in an amount of 3 mg per kg of body weight.
The result of the test was assessed both 24 hours and 48 hours after the administration of scopolamine. The number of amnesic rats and of sound rats was counted for both the control group (rats which were not given the test compounds but to which scopolamine and physiological saline alone were administered intraperitoneally) and the treated group (rats to which both the test compound and scopolamine were administered).

Sequence of prolyl endopeptidase (P27028 21-705): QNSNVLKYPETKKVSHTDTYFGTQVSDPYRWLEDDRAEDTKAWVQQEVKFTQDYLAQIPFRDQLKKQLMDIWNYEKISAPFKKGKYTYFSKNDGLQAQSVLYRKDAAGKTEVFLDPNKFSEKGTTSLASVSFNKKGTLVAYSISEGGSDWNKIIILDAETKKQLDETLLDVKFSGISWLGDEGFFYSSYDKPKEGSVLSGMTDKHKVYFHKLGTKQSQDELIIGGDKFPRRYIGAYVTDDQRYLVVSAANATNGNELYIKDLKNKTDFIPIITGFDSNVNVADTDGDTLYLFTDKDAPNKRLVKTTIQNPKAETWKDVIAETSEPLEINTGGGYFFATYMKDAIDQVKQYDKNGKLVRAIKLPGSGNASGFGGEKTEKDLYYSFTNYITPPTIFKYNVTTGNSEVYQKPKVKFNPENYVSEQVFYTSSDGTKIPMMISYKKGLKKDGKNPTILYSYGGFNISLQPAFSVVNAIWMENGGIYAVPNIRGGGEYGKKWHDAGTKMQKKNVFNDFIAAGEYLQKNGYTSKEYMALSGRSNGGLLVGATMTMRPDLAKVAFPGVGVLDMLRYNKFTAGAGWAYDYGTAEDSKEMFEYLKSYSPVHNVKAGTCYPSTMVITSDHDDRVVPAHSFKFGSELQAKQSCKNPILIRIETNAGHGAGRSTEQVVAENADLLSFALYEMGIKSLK

Q: `COC(=O)C1CCCN1C(=O)Cc1ccc(OC)cc1` (centres unmarked) [Compound No. 1] was tested. Which “IC50 (amount of compound to achieve 50% inhibition of prolyl endopeptidase)” value (prolyl endopeptidase) did it give?
A: 80 μg/test tube

Q: Which “IC50 (amount of compound to achieve 50% inhibition of prolyl endopeptidase)” value (prolyl endopeptidase) does the source give for `COC(=O)C1CCCN1C(=O)CCc1ccc(OC)cc1` (centres unmarked) [Compound No. 2] here?
A: 51 μg/test tube

Q: How did the “IC50 (amount of compound to achieve 50% inhibition of prolyl endopeptidase)” value (prolyl endopeptidase) turn out when `COC(=O)[C@@H]1CCCN1C(=O)CCOc1ccccc1` [Compound No. 19, N-(3-phenoxy)propionyl-proline methyl ester] was run?
A: 60 μg/test tube

Q: Which “IC50 (amount of compound to achieve 50% inhibition of prolyl endopeptidase)” value (prolyl endopeptidase) does the source give for `O=CC1CCCN1C(=O)CCOc1ccccc1` (centres unmarked) [Compound No. 21, N-(3-phenoxy)propionyl-prolinal] here?
A: 2.5 μg/test tube

Q: For `COc1ccc(CCC(=O)N2CCCC2C=O)cc1` (centres unmarked) [SUAM1050], which “No. of amnesic rats/No. of rats tested” value [1] is on record?
A: 5/10

Q: And the percentage amnesia [1]?
A: 50%

Q: And the “Avoidance time 24 hrs. later” value [1]?
A: 198.2 s

Q: What about the “Avoidance time 48 hrs. later” value [1] of the same compound?
A: 203.5 s

Q: Which results are given for `COc1ccc(CCCC(=O)N2CCCC2C=O)cc1` (centres unmarked) [SUAM1051]?
A: preventive effect against scopolamine amnesia (in words) [1]: particularly remarkable effects; No. of amnesic rats/No. of rats tested [1]: 0/10; percentage amnesia [1]: 0%; Avoidance time 24 hrs. later [1]: 300.0 s; Avoidance time 48 hrs. later [1]: 300.0 s

Q: With `O=CC1CCCN1C(=O)Cc1ccc(Cl)cc1` (centres unmarked) [SUAM1052] as the compound, how does the “No. of amnesic rats/No. of rats tested” value [1] read?
A: 3/10

Q: And the percentage amnesia [1]?
A: 30%

Q: What about the “Avoidance time 24 hrs. later” value [1] of the same compound?
A: 223.1 s

Q: And the “Avoidance time 48 hrs. later” value [1]?
A: 214.8 s

Q: For `COc1ccc(/C=C/C(=O)N2CCCC2C=O)cc1` (centres unmarked) [SUAM1054], which “No. of amnesic rats/No. of rats tested” value [1] is on record?
A: 5/10

Q: What about the percentage amnesia [1] of the same compound?
A: 50%

Q: And the “Avoidance time 24 hrs. later” value [1]?
A: 204.5 s

Q: And the “Avoidance time 48 hrs. later” value [1]?
A: 199.7 s

Q: Which “preventive effect against scopolamine amnesia (in words)” value [1] does the source give for `O=CC1CCCN1C(=O)CCC(=O)c1ccccc1` (centres unmarked) [SUAM1055] here?
A: particularly remarkable effects

Q: What about the “No. of amnesic rats/No. of rats tested” value [1] of the same compound?
A: 0/10

Q: What about the percentage amnesia [1] of the same compound?
A: 0%

Q: What about the “Avoidance time 24 hrs. later” value [1] of the same compound?
A: 300.0 s

Q: And the “Avoidance time 48 hrs. later” value [1]?
A: 300.0 s

Q: `O=CC1CCCN1C(=O)CC(c1ccccc1)c1ccccc1` (centres unmarked) [SUAM1065] was tested. Which “preventive effect against scopolamine amnesia (in words)” value [1] did it give?
A: particularly remarkable effects

Q: And the “No. of amnesic rats/No. of rats tested” value [1]?
A: 1/10

Q: And the percentage amnesia [1]?
A: 10%

Q: What about the “Avoidance time 24 hrs. later” value [1] of the same compound?
A: 284.6 s

Q: What about the “Avoidance time 48 hrs. later” value [1] of the same compound?
A: 267.2 s

Q: How did the “No. of amnesic rats/No. of rats tested” value [1] turn out when `CCC(C(=O)N1CCCC1C=O)c1ccccc1` (centres unmarked) [SUAM1066] was run?
A: 3/10

Q: What about the percentage amnesia [1] of the same compound?
A: 30%

Q: What about the “Avoidance time 24 hrs. later” value [1] of the same compound?
A: 268.4 s

Q: What about the “Avoidance time 48 hrs. later” value [1] of the same compound?
A: 205.4 s

Q: For `O=CC1CCCN1C(=O)CCC(c1ccccc1)c1ccccc1` (centres unmarked) [SUAM1090], which “No. of amnesic rats/No. of rats tested” value [1] is on record?
A: 4/10

Q: And the percentage amnesia [1]?
A: 40%

Q: What about the “Avoidance time 24 hrs. later” value [1] of the same compound?
A: 232.8 s

Q: What about the “Avoidance time 48 hrs. later” value [1] of the same compound?
A: 202.36 s

Q: `COC(=O)C1CCCN1C(=O)CCCc1ccc(OC)cc1` (centres unmarked) [compound 3] was tested. Which “IC50 (amount of compound to achieve 50% inhibition of prolyl endopeptidase)” value (prolyl endopeptidase) did it give?
A: 180 μg/test tube

Q: `COc1ccc(CC(=O)N2CCCC2C=O)cc1` (centres unmarked) [compound 7] was tested. Which “IC50 (amount of compound to achieve 50% inhibition of prolyl endopeptidase)” value (prolyl endopeptidase) did it give?
A: 3.0 μg/test tube

Q: For `COc1ccc(CCC(=O)N2CCCC2C=O)cc1` (centres unmarked) [compound 8], which “IC50 (amount of compound to achieve 50% inhibition of prolyl endopeptidase)” value (prolyl endopeptidase) is on record?
A: 1.0 μg/test tube

Q: For `COc1ccc(CCCC(=O)N2CCCC2C=O)cc1` (centres unmarked) [compound 9], which “IC50 (amount of compound to achieve 50% inhibition of prolyl endopeptidase)” value (prolyl endopeptidase) is on record?
A: 0.05 μg/test tube

Q: For `COC(=O)C1CCCN1C(=O)Cc1ccc(Cl)cc1` (centres unmarked) [compound 10], which “IC50 (amount of compound to achieve 50% inhibition of prolyl endopeptidase)” value (prolyl endopeptidase) is on record?
A: 72 μg/test tube

Q: With `COC(=O)C1CCCN1C(=O)CCc1ccc(Cl)cc1` (centres unmarked) [compound 11] as the compound, how does the “IC50 (amount of compound to achieve 50% inhibition of prolyl endopeptidase)” value (prolyl endopeptidase) read?
A: 30 μg/test tube

Q: How did the “IC50 (amount of compound to achieve 50% inhibition of prolyl endopeptidase)” value (prolyl endopeptidase) turn out when `COC(=O)C1CCCN1C(=O)CCCc1ccc(Cl)cc1` (centres unmarked) [compound 12] was run?
A: 50 μg/test tube

Q: Which “IC50 (amount of compound to achieve 50% inhibition of prolyl endopeptidase)” value (prolyl endopeptidase) does the source give for `O=CC1CCCN1C(=O)Cc1ccc(Cl)cc1` (centres unmarked) [compound 16] here?
A: 0.5 μg/test tube

Q: With `O=CC1CCCN1C(=O)CCc1ccc(Cl)cc1` (centres unmarked) [compound 17] as the compound, how does the “IC50 (amount of compound to achieve 50% inhibition of prolyl endopeptidase)” value (prolyl endopeptidase) read?
A: 1.0 μg/test tube

Q: For `O=CC1CCCN1C(=O)CCCc1ccc(Cl)cc1` (centres unmarked) [compound 18], which “IC50 (amount of compound to achieve 50% inhibition of prolyl endopeptidase)” value (prolyl endopeptidase) is on record?
A: 1.5 μg/test tube

Q: With `COC(=O)C1CCCN1C(=O)CC(c1ccccc1)c1ccccc1` (centres unmarked) [compound 22] as the compound, how does the “IC50 (amount of compound to achieve 50% inhibition of prolyl endopeptidase)” value (prolyl endopeptidase) read?
A: 250 μg/test tube

Q: Which “IC50 (amount of compound to achieve 50% inhibition of prolyl endopeptidase)” value (prolyl endopeptidase) does the source give for `O=CC1CCCN1C(=O)CC(c1ccccc1)c1ccccc1` (centres unmarked) [compound 24] here?
A: 0.1 μg/test tube

Q: With `CCC(C(=O)N1CCCC1C(=O)OC)c1ccccc1` (centres unmarked) [compound 25] as the compound, how does the “IC50 (amount of compound to achieve 50% inhibition of prolyl endopeptidase)” value (prolyl endopeptidase) read?
A: 510 μg/test tube

Q: `CCC(C(=O)N1CCCC1C=O)c1ccccc1` (centres unmarked) [compound 27] was tested. Which “IC50 (amount of compound to achieve 50% inhibition of prolyl endopeptidase)” value (prolyl endopeptidase) did it give?
A: 0.2 μg/test tube

Q: `COC(=O)C1CCCN1C(=O)CCC(=O)c1ccccc1` (centres unmarked) [compound 28] was tested. Which “IC50 (amount of compound to achieve 50% inhibition of prolyl endopeptidase)” value (prolyl endopeptidase) did it give?
A: 200 μg/test tube

Q: `O=CC1CCCN1C(=O)CCC(=O)c1ccccc1` (centres unmarked) [compound 30] was tested. Which “IC50 (amount of compound to achieve 50% inhibition of prolyl endopeptidase)” value (prolyl endopeptidase) did it give?
A: 0.1 μg/test tube

Q: `COC(=O)C1CCCN1C(=O)C(CCc1ccccc1)C(C)C` (centres unmarked) [compound 31] was tested. Which “IC50 (amount of compound to achieve 50% inhibition of prolyl endopeptidase)” value (prolyl endopeptidase) did it give?
A: > 200 μg/test tube

Q: `CC(C)C(CCc1ccccc1)C(=O)N1CCCC1C=O` (centres unmarked) [compound 33] was tested. Which “IC50 (amount of compound to achieve 50% inhibition of prolyl endopeptidase)” value (prolyl endopeptidase) did it give?
A: > 5 μg/test tube

Q: `COC(=O)C1CCCN1C(=O)C(C)CCc1ccccc1` (centres unmarked) [compound 34] was tested. Which “IC50 (amount of compound to achieve 50% inhibition of prolyl endopeptidase)” value (prolyl endopeptidase) did it give?
A: 80 μg/test tube

Q: Which “IC50 (amount of compound to achieve 50% inhibition of prolyl endopeptidase)” value (prolyl endopeptidase) does the source give for `CC(CCc1ccccc1)C(=O)N1CCCC1C=O` (centres unmarked) [compound 36] here?
A: 1.0 μg/test tube

Q: Which “IC50 (amount of compound to achieve 50% inhibition of prolyl endopeptidase)” value (prolyl endopeptidase) does the source give for `COC(=O)C1CCCN1C(=O)/C=C/c1ccc(OC)cc1` (centres unmarked) [compound 37] here?
A: 80 μg/test tube

Q: With `COc1ccc(/C=C/C(=O)N2CCCC2C=O)cc1` (centres unmarked) [compound 39] as the compound, how does the “IC50 (amount of compound to achieve 50% inhibition of prolyl endopeptidase)” value (prolyl endopeptidase) read?
A: 0.2 μg/test tube

Q: How did the “IC50 (amount of compound to achieve 50% inhibition of prolyl endopeptidase)” value (prolyl endopeptidase) turn out when `O=CC1CCCN1C(=O)CCC(c1ccccc1)c1ccccc1` (centres unmarked) [compound 42] was run?
A: 0.35 μg/test tube
